According to patent publication US20230079045A1 (priority 2019, published 2023):

system: IFV A/PR/8/34; test: cytopathic effect (CPE) antiviral test in MDCK cells, IFV A/PR/8/34; format: cell-based, influenza virus; conditions: unidentified influenza virus, PR/8, MDCK, 120 h, read-out: EC50(IFV A/PR/8/34)

`O=C(Nc1ccc2nc(-c3ccnc(C(=O)N4CCN(C(c5ccccc5)c5nnn(C(F)F)n5)CC4)c3)oc2c1)[C@@H]1C[C@@H]1F` (mixture of isomers) [Compound 93, (1S,2S)—N-(2-(2-(4-((R/S)-(2-(difluoromethyl)-2H-tetrazol-5-yl)(phenyl)methyl)piperazine-1-carbonyl)pyridin-4-yl)benzo[d]oxazol-6-yl)-2-fluorocyclopropane-1-carboxamide] and `O=C(c1cc(-c2nc3ccc(NC(=O)C4(F)CC4)cc3o2)ccn1)N1CCN(C(c2ccccc2)c2nnn(C(F)F)n2)CC1` (racemic) [Compound 125, (R/S)—N-(2-(2-(4-((2-(difluoromethyl)-2H-tetrazol-5-yl)(phenyl)methyl)piperazine-1-carbonyl)pyridin-4-yl)benzo[d]oxazol-6-yl)-1-fluorocyclopropane-1-carboxamide] are within 1.5-fold of each other in EC50: 16 nM for the first, 12 nM for the second.

Compared with `O=C(Nc1ccc2oc(-c3ccnc(C(=O)N4CCN(C(c5ccsc5)c5nnn(C(F)F)n5)CC4)c3)nc2c1)[C@@H]1C[C@@H]1F` (mixture of isomers) [Compound 122, (1S,2S)—N-(2-(2-(4-((R/S)-(2-(difluoromethyl)-2H-tetrazol-5-yl)(thiophen-3-yl)methyl)piperazine-1-carbonyl)pyridin-4-yl)benzo[d]oxazol-5-yl)-2-fluorocyclopropane-1-carboxamide], `O=C(Nc1ccc2oc(-c3ccnc(C(=O)N4CCN(C(c5ccccc5)c5nnn(CCO)n5)CC4)c3)nc2c1)[C@@H]1C[C@@H]1F` (mixture of isomers) [Compound 212, (1S,2S)-2-fluoro-N-(2-(2-(4-((R/S)-(2-(2-hydroxyethyl)-2H-tetrazol-5-yl)(phenyl)methyl)piperazine-1-carbonyl)pyridin-4-yl)benzo[d]oxazol-5-yl)cyclopropane-1-carboxamide] is 8.6-fold lower in EC50: 19 nM for the first, 2.2 nM for the second. The second is the more potent here.

Compared with `O=C(Nc1ccc2oc(-c3ccnc(C(=O)N4CCC(C(c5ccccc5)n5nnc(C(F)F)n5)CC4)c3)nc2c1)[C@@H]1C[C@@H]1F` (mixture of isomers) [Compound 138, (1S,2S)—N-(2-(2-(4-((R/S)-(5-(difluoromethyl)-2H-tetrazol-2-yl)(phenyl)methyl)piperidine-1-carbonyl)pyridin-4-yl)benzo[d]oxazol-5-yl)-2-fluorocyclopropanecarboxamide], `O=C(Nc1ccc2oc(-c3ccnc(C(=O)N4CCC(C(c5ccccc5)c5nnn(C(F)F)n5)CC4)c3)nc2c1)[C@@H]1C[C@@H]1F` (mixture of isomers) [Compound 168, (1S,2S)—N-(2-(2-(4-((R/S)-(2-(difluoromethyl)-2H-tetrazol-5-yl)(phenyl)methyl)piperidine-1-carbonyl)pyridin-4-yl)benzo[d]oxazol-5-yl)-2-fluorocyclopropane-1-carboxamide] is 2-fold lower in EC50: 4 nM for the first, 2 nM for the second.

Compared with `Cc1nnn(C(c2ccccc2)C2CCN(C(=O)c3cc(-c4nc5cc(NC(=O)[C@H]6C[C@@H]6F)ccc5o4)ccn3)CC2)n1` (mixture of isomers) [Compound 184, (1R,2S)-2-fluoro-N-(2-(2-(4-((R/S)-(5-methyl-2H-tetrazol-2-yl)(phenyl)methyl)piperidine-1-carbonyl)pyridin-4-yl)benzo[d]oxazol-5-yl)cyclopropanecarboxamide], `Cc1nnn(C(c2ccccc2)C2CCN(C(=O)c3cc(-c4nc5cc(NC(=O)[C@H]6C[C@H]6F)ccc5o4)ccn3)CC2)n1` (mixture of isomers) [Compound 185, (1R,2R)-2-fluoro-N-(2-(2-(4-((R/S)-(5-methyl-2H-tetrazol-2-yl)(phenyl)methyl)piperidine-1-carbonyl)pyridin-4-yl)benzo[d]oxazol-5-yl)cyclopropanecarboxamide] is 1.7-fold higher in EC50: 14 nM for the first, 24 nM for the second.

Compared with `Cc1nnn(C(c2ccccc2)C2CCN(C(=O)c3cc(-c4nc5cc(NC(=O)[C@@H]6C[C@H]6F)ccc5o4)ccn3)CC2)n1` (mixture of isomers) [Compound 190, (1S,2R)-2-fluoro-N-(2-(2-(4-((R/S)-(5-methyl-2H-tetrazol-2-yl)(phenyl)methyl)piperidine-1-carbonyl)pyridin-4-yl)benzo[d]oxazol-5-yl)cyclopropane-1-carboxamide], `O=C(Nc1ccc2oc(-c3ccnc(C(=O)N4CCC(C(c5ccccc5)n5nnc(CO)n5)CC4)c3)nc2c1)[C@@H]1C[C@@H]1F` (mixture of isomers) [Compound 197, (1S,2S)-2-fluoro-N-(2-(2-(4-((R/S)-(5-(hydroxymethyl)-2H-tetrazol-2-yl)(phenyl)methyl)piperidine-1-carbonyl)pyridin-4-yl)benzo[d]oxazol-5-yl)cyclopropane-1-carboxamide] is 12-fold lower in EC50: 11 nM for the first, 0.9 nM for the second. The second is the more potent here.

`CC(=O)OCc1nnn(C(c2ccccc2)C2CCN(C(=O)c3cc(-c4nc5cc(NC(=O)[C@@H]6C[C@@H]6F)ccc5o4)ccn3)CC2)n1` (mixture of isomers) [Compound 199, (2-((R/S)-(1-(4-(5-((1S,2S)-2-fluorocyclopropane-1-carboxamido)benzo[d]oxazol-2-yl)picolinoyl)piperidin-4-yl)(phenyl)methyl)-2H-tetrazol-5-yl)methyl acetate] and `COCc1nnn(C(c2ccccc2)C2CCN(C(=O)c3cc(-c4nc5cc(NC(=O)[C@@H]6C[C@@H]6F)ccc5o4)ccn3)CC2)n1` (mixture of isomers) [Compound 200, (1S,2S)-2-fluoro-N-(2-(2-(4-((R/S)-(5-(methoxymethyl)-2H-tetrazol-2-yl)(phenyl)methyl)piperidine-1-carbonyl)pyridin-4-yl)benzo[d]oxazol-5-yl)cyclopropane-1-carboxamide] are within 1.5-fold of each other in EC50: 1.8 nM for the first, 2.1 nM for the second.

Going from `Cc1nnn(C(c2ccccc2)C2CC3CCC(C2)N3C(=O)c2cc(-c3nc4cc(NC(=O)[C@@H]5C[C@@H]5F)ccc4o3)ccn2)n1` (mixture of isomers) [Compound 208, (1S,2S)-2-fluoro-N-(2-(2-(3-((R/S)-(5-methyl-2H-tetrazol-2-yl)(phenyl)methyl)-8-azabicyclo[3.2.1]octane-8-carbonyl)pyridin-4-yl)benzo[d]oxazol-5-yl)cyclopropanecarboxamide] to `NCc1nnn(C(c2ccccc2)C2CCN(C(=O)c3cc(-c4nc5cc(NC(=O)[C@@H]6C[C@@H]6F)ccc5o4)ccn3)CC2)n1` (mixture of isomers) [Compound 210, (1S,2S)—N-(2-(2-(4-((R/S)-(5-(aminomethyl)-2H-tetrazol-2-yl)(phenyl)methyl)piperidine-1-carbonyl)pyridin-4-yl)benzo[d]oxazol-5-yl)-2-fluorocyclopropane-1-carboxamide], the EC50 falls from 6.9 nM to 0.8 nM (8.6-fold).

First: CNCc1nnn(C(c2ccccc2)C2CCN(C(=O)c3cc(-c4nc5cc(NC(=O)[C@@H]6C[C@@H]6F)ccc5o4)ccn3)CC2)n1 (mixture of isomers) [Compound 211, (1S,2S)-2-fluoro-N-(2-(2-(4-((R/S)-(5-((methylamino)methyl)-2H-tetrazol-2-yl)(phenyl)methyl)piperidine-1-carbonyl)pyridin-4-yl)benzo[d]oxazol-5-yl)cyclopropane-1-carboxamide]
Second: Cc1nnn(C(c2ccccc2)C2CCN(C(=O)c3nccc(-c4nc5cc(NC(=O)[C@@H]6C[C@@H]6F)ccc5o4)c3F)CC2)n1 (mixture of isomers) [Compound 219, (1S,2S)-2-fluoro-N-(2-(3-fluoro-2-(4-((R/S)-(5-methyl-2H-tetrazol-2-yl)(phenyl)methyl)piperidine-1-carbonyl)pyridin-4-yl)benzo[d]oxazol-5-yl)cyclopropanecarboxamide]
The EC50 of the first is 6.3-fold lower: 0.3 nM for the first, 1.9 nM for the second.

Going from `COCn1nnc(C(c2ccccc2)N2CCN(C(=O)c3cc(-c4nc5cc(NC(=O)[C@@H]6C[C@@H]6F)ccc5o4)ccn3)CC2)n1` (mixture of isomers) [Compound 214, (1S,2S)-2-fluoro-N-(2-(2-(4-((R/S)(2-(methoxymethyl)-2H-tetrazol-5-yl)(phenyl)methyl)piperazine-1-carbonyl)pyridin-4-yl)benzo[d]oxazol-5-yl)cyclopropane-1-carboxamide] to `O=C(c1cc(-c2nc3cc(NC(=O)C4(F)CC4)ccc3o2)ccn1)N1CCN(C(c2ccccc2)c2nnn(C(F)F)n2)CC1` (racemic) [Compound 129], the EC50 rises from 1.9 nM to 12 nM (6.3-fold). The first is the more potent here.

First: O=C(c1cc(-c2nc3cc(-c4ccns4)ccc3o2)ccn1)N1CCN(C(c2ccccc2)c2nnn(C(F)F)n2)CC1 (racemic) [Compound 115, (R/S)-(4-((2-(difluoromethyl)-2H-tetrazol-5-yl)(phenyl)methyl)piperazin-1-yl)(4-(5-(isothiazol-5-yl)benzo[d]oxazol-2-yl)pyridin-2-yl)methanone]
Second: Cn1cncc1-c1ccc2oc(-c3ccnc(C(=O)N4CCN(C(c5ccccc5)c5nnn(C(F)F)n5)CC4)c3)nc2c1 (racemic) [Compound 126, (R/S)-(4-((2-(difluoromethyl)-2H-tetrazol-5-yl)(phenyl)methyl)piperazin-1-yl)(4-(5-(1-methyl-1H-imidazol-5-yl)benzo[d]oxazol-2-yl)pyridin-2-yl)methanone]
The EC50 of the first is 64-fold higher: 64 nM for the first, 1 nM for the second. The second is the more potent here.

First: CCn1cc(-c2ccc3oc(-c4ccnc(C(=O)N5CCN(C(c6ccccc6)c6nnn(C(F)F)n6)CC5)c4)nc3c2)cn1 (racemic) [Compound 127, (R/S)-(4-((2-(difluoromethyl)-2H-tetrazol-5-yl)(phenyl)methyl)piperazin-1-yl)(4-(5-(1-ethyl-1H-pyrazol-4-yl)benzo[d]oxazol-2-yl)pyridin-2-yl)methanone]
Second: Cn1cc(-c2ccc3oc(-c4ccnc(C(=O)N5CCN(C(c6ccccc6)c6nnn(C(F)F)n6)CC5)c4)nc3c2)nn1 (racemic) [Compound 130, (R/S)-(4-((2-(difluoromethyl)-2H-tetrazol-5-yl)(phenyl)methyl)piperazin-1-yl)(4-(5-(1-methyl-1H-1,2,3-triazol-4-yl)benzo[d]oxazol-2-yl)pyridin-2-yl)methanone]
The EC50 of the first is 7.2-fold lower: 4 nM for the first, 29 nM for the second. The first is the more potent here.

In the case of `Cn1nncc1-c1ccc2oc(-c3ccnc(C(=O)N4CCN(C(c5ccccc5)c5nnn(C(F)F)n5)CC4)c3)nc2c1` (racemic) [Compound 131, (R/S)-(4-((2-(difluoromethyl)-2H-tetrazol-5-yl)(phenyl)methyl)piperazin-1-yl)(4-(5-(1-methyl-1H-1,2,3-triazol-5-yl)benzo[d]oxazol-2-yl)pyridin-2-yl)methanone], the EC50 is reported as 12 nM.
